According to ChEMBL document CHEMBL3045644, “Synthesis anti-inflammatory and anticancer activity evaluation of some pyrazole and oxadiazole derivatives” (2012):

Experiments:
Assay type in all cases: functional
Rattus norvegicus = assay: Anti-inflammatory activity in Charles Foster albino Rattus norvegicus (rat) assessed as inhibition of carrageenan-induced paw edema at 50 mg/kg, po […] measured up to 3 hr relative to control
HepG2 = assay: Growth inhibition of Homo sapiens (human) HepG2 cells at 10 uM after 48 hr by SRB assay; details: HepG2, 48 h, read-out: GI
HCT-15 = assay: Growth inhibition of Homo sapiens (human) HCT15 cells at 10 uM after 48 hr by SRB assay; details: HCT-15, 48 h, read-out: GI
T47D = assay: Growth inhibition of Homo sapiens (human) T47D cells at 10 uM after 48 hr by SRB assay; details: read-out: GI
PA-1 = assay: Growth inhibition of Homo sapiens (human) PA1 cells at 10 uM after 48 hr by SRB assay; details: PA-1, 48 h, read-out: GI
NCI-H522 = assay: Growth inhibition of Homo sapiens (human) NCI-H522 cells at 10 uM after 48 hr by SRB assay; details: NCI-H522, 48 h, read-out: GI

## CC(C)Cc1ccc(C(C)C(=O)O)cc1 (centres undefined) [IBUPROFEN]
Rattus norvegicus
  inhibition in vivo at 50 mg/kg: 39%

## COc1ccc(OC)c(C2CC(c3cccnc3)=NN2)c1 (centres undefined)
HepG2
  inhibition of growth at 10 µM: 34%
HCT-15
  inhibition of growth at 10 µM: 4%
T47D
  inhibition of growth at 10 µM: 13%
PA-1
  inhibition of growth at 10 µM: 31%
NCI-H522
  inhibition of growth at 10 µM: 40%
Rattus norvegicus
  inhibition in vivo at 50 mg/kg: 15%

## COc1cc(-c2nc(-c3ccncc3)no2)ccc1O
HepG2
  inhibition of growth at 10 µM: 13%
HCT-15
  inhibition of growth at 10 µM: 5%
T47D
  inhibition of growth at 10 µM: 34%
PA-1
  inhibition of growth at 10 µM: 32%
NCI-H522
  inhibition of growth at 10 µM: 25%
Rattus norvegicus
  inhibition in vivo at 50 mg/kg: 14%

## COc1ccc(OC)c(C2CC(c3ccccn3)=NN2)c1 (centres undefined)
HepG2
  inhibition of growth at 10 µM: 23%
HCT-15
  inhibition of growth at 10 µM: 10%
T47D
  inhibition of growth at 10 µM: 26%
PA-1
  inhibition of growth at 10 µM: 25%
NCI-H522
  inhibition of growth at 10 µM: 28%
Rattus norvegicus
  inhibition in vivo at 50 mg/kg: 15%

## COc1ccc(OC)c(C2CC(c3cccnc3)=NN2c2ccccc2)c1 (centres undefined)
HepG2
  inhibition of growth at 10 µM: 26%
HCT-15
  inhibition of growth at 10 µM: 7%
T47D
  inhibition of growth at 10 µM: 22%
PA-1
  inhibition of growth at 10 µM: 32%
NCI-H522
  inhibition of growth at 10 µM: 32%
Rattus norvegicus
  inhibition in vivo at 50 mg/kg: 24%

## CN(C)c1ccc(C2CC(c3ccncc3)=NN2)cc1 (centres undefined)
HepG2
  inhibition of growth at 10 µM: 29%
HCT-15
  inhibition of growth at 10 µM: 3%
T47D
  inhibition of growth at 10 µM: 21%
PA-1
  inhibition of growth at 10 µM: 26%
NCI-H522
  inhibition of growth at 10 µM: 28%
Rattus norvegicus
  inhibition in vivo at 50 mg/kg: 0%

## COc1ccc(OC)c(-c2nc(-c3ccccn3)no2)c1
HepG2
  inhibition of growth at 10 µM: 33%
HCT-15
  inhibition of growth at 10 µM: 5%
T47D
  inhibition of growth at 10 µM: 37%
PA-1
  inhibition of growth at 10 µM: 25%
NCI-H522
  inhibition of growth at 10 µM: 23%
Rattus norvegicus
  inhibition in vivo at 50 mg/kg: 28%

## COc1ccc(OC)c(-c2nc(-c3ccncc3)no2)c1
HepG2
  inhibition of growth at 10 µM: 27%
HCT-15
  inhibition of growth at 10 µM: 2%
T47D
  inhibition of growth at 10 µM: 25%
PA-1
  inhibition of growth at 10 µM: 19%
NCI-H522
  inhibition of growth at 10 µM: 10%
Rattus norvegicus
  inhibition in vivo at 50 mg/kg: 35%

## CN(C)c1ccc(C2CC(c3ccccn3)=NN2c2ccccc2)cc1 (centres undefined)
HepG2
  inhibition of growth at 10 µM: 24%
HCT-15
  inhibition of growth at 10 µM: 12%
T47D
  inhibition of growth at 10 µM: 41%
PA-1
  inhibition of growth at 10 µM: 16%
NCI-H522
  inhibition of growth at 10 µM: 26%
Rattus norvegicus
  inhibition in vivo at 50 mg/kg: 35%

## COc1ccc(OC)c(-c2nc(-c3cnccn3)no2)c1
HepG2
  inhibition of growth at 10 µM: 17%
HCT-15
  inhibition of growth at 10 µM: 7%
T47D
  inhibition of growth at 10 µM: 41%
PA-1
  inhibition of growth at 10 µM: 26%
NCI-H522
  inhibition of growth at 10 µM: 23%
Rattus norvegicus
  inhibition in vivo at 50 mg/kg: 11%

## CN(C)c1ccc(C2CC(c3cccnc3)=NN2c2ccccc2)cc1 (centres undefined)
HepG2
  inhibition of growth at 10 µM: 32%
HCT-15
  inhibition of growth at 10 µM: 1%
T47D
  inhibition of growth at 10 µM: 33%
PA-1
  inhibition of growth at 10 µM: 20%
NCI-H522
  inhibition of growth at 10 µM: 20%
Rattus norvegicus
  inhibition in vivo at 50 mg/kg: 34%

## COc1ccc(OC)c(C2CC(c3ccccn3)=NN2c2ccccc2)c1 (centres undefined)
HepG2
  inhibition of growth at 10 µM: 20%
HCT-15
  inhibition of growth at 10 µM: 9%
T47D
  inhibition of growth at 10 µM: 12%
PA-1
  inhibition of growth at 10 µM: 18%
NCI-H522
  inhibition of growth at 10 µM: 16%
Rattus norvegicus
  inhibition in vivo at 50 mg/kg: 27%

## O=P1(N(CCCl)CCCl)NCCCO1 (centres undefined) [CYCLOPHOSPHAMIDE ANHYDROUS]
HepG2
  inhibition of growth at 10 µM: 14%
HCT-15
  inhibition of growth at 10 µM: 5%
T47D
  inhibition of growth at 10 µM: 18%
PA-1
  inhibition of growth at 10 µM: 4%
NCI-H522
  inhibition of growth at 10 µM: 4%

## C[C@@H]1C[C@@H]([C@H](O)CC2CC(=O)NC(=O)C2)C(=O)[C@@H](C)C1 [CYCLOHEXIMIDE]
HepG2
  inhibition of growth at 10 µM: 5%
HCT-15
  inhibition of growth at 10 µM: 3%
T47D
  inhibition of growth at 10 µM: 9%
PA-1
  inhibition of growth at 10 µM: 51%
NCI-H522
  inhibition of growth at 10 µM: 13%

## COc1ccc(OC)c(C2CC(c3ccncc3)=NN2c2ccccc2)c1 (centres undefined)
HepG2
  inhibition of growth at 10 µM: 32%
HCT-15
  inhibition of growth at 10 µM: 5%
T47D
  inhibition of growth at 10 µM: 37%
PA-1
  inhibition of growth at 10 µM: 31%
NCI-H522
  inhibition of growth at 10 µM: 29%
Rattus norvegicus
  inhibition in vivo at 50 mg/kg: 18%

## COc1cc(-c2nc(-c3cnccn3)no2)ccc1O
HepG2
  inhibition of growth at 10 µM: 20%
HCT-15
  inhibition of growth at 10 µM: 1%
T47D
  inhibition of growth at 10 µM: 35%
PA-1
  inhibition of growth at 10 µM: 20%
NCI-H522
  inhibition of growth at 10 µM: 20%
Rattus norvegicus
  inhibition in vivo at 50 mg/kg: 26%

## CN(C)c1ccc(C2CC(c3ccncc3)=NN2c2ccccc2)cc1 (centres undefined)
HepG2
  inhibition of growth at 10 µM: 35%
HCT-15
  inhibition of growth at 10 µM: 6%
T47D
  inhibition of growth at 10 µM: 7%
PA-1
  inhibition of growth at 10 µM: 24%
NCI-H522
  inhibition of growth at 10 µM: 32%
Rattus norvegicus
  inhibition in vivo at 50 mg/kg: 32%

## CN(C)c1ccc(C2CC(c3ccccn3)=NN2)cc1 (centres undefined)
HepG2
  inhibition of growth at 10 µM: 29%
HCT-15
  inhibition of growth at 10 µM: 5%
T47D
  inhibition of growth at 10 µM: 3%
PA-1
  inhibition of growth at 10 µM: 21%
NCI-H522
  inhibition of growth at 10 µM: 34%
Rattus norvegicus
  inhibition in vivo at 50 mg/kg: 18%

## CN(C)c1ccc(C2CC(c3cccnc3)=NN2)cc1 (centres undefined)
HepG2
  inhibition of growth at 10 µM: 35%
HCT-15
  inhibition of growth at 10 µM: 6%
T47D
  inhibition of growth at 10 µM: 15%
PA-1
  inhibition of growth at 10 µM: 36%
NCI-H522
  inhibition of growth at 10 µM: 25%
Rattus norvegicus
  inhibition in vivo at 50 mg/kg: 22%

## COc1cc(-c2nc(-c3ccccn3)no2)ccc1O
HepG2
  inhibition of growth at 10 µM: 39%
HCT-15
  inhibition of growth at 10 µM: 3%
T47D
  inhibition of growth at 10 µM: 33%
PA-1
  inhibition of growth at 10 µM: 30%
NCI-H522
  inhibition of growth at 10 µM: 48%
Rattus norvegicus
  inhibition in vivo at 50 mg/kg: 24%

## O=c1[nH]cc(F)c(=O)[nH]1 [FLUOROURACIL]
HepG2
  inhibition of growth at 10 µM: 18%
HCT-15
  inhibition of growth at 10 µM: 8%
T47D
  inhibition of growth at 10 µM: 5%
PA-1
  inhibition of growth at 10 µM: 10%
NCI-H522
  inhibition of growth at 10 µM: 24%

## COc1ccc(OC)c(C2CC(c3ccncc3)=NN2)c1 (centres undefined)
HepG2
  inhibition of growth at 10 µM: 34%
HCT-15
  inhibition of growth at 10 µM: 28%
T47D
  inhibition of growth at 10 µM: 19%
PA-1
  inhibition of growth at 10 µM: 24%
NCI-H522
  inhibition of growth at 10 µM: 24%
Rattus norvegicus
  inhibition in vivo at 50 mg/kg: 13%
